The results in this text go back to paper PMC2843403 (Bioorganic & medicinal chemistry, 2010).

Data set [1] has as its target T1, PKCδ C1B (Mus musculus, UniProt P28867). In words: Fluorescence quenching binding to PKCδ C1B. To be noted: fit of fluorescence quenching of PKCδ C1B (2 μM), Fig. 3.
Target sequence in this assay (P28867 231-280): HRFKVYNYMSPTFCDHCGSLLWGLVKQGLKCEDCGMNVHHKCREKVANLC
The nature of the next data set: Solubility. The class given is physicochemical.
Data set [2] concerns the target T1, PKCδ C1B. Kind of data set: Emission maximum of ligand in presence of PKCδ C1B. The data set is classed as binding. To be noted: buffer versus presence of C1B subdomain (590 to 560 nm).
Target sequence in this assay (P28867 231-280 limits assumed): as the sequence (P28867 231-280) above

Take `COc1cc(/C=C/C(=O)CC(=O)/C=C/c2ccc(O)c(OC)c2)ccc1O` [Compound 1, Curcumin]: the Hill coefficient – broadly, a measure of the steepness of the concentration-response curve – on PKCδ C1B [1] is 1.6. Also, the Solubility in water entry in “Solubility” is “poorly soluble”.

For `CCCCCCCCCCCCCCCCOc1ccc(/C=C/C(O)=C/C(=O)/C=C/c2ccc(O)c(OC)c2)cc1OC` [Compound 4, (1E, 4Z, 6E)-7-(4-(hexadecyloxy)-3-methoxyphenyl)-5-hydroxy-1-(4-hydroxy-3-methoxyphenyl)hepta-1,4,6-trien-3-one], on PKCδ C1B [1], the Hill coefficient is 2. The “Blue shift of emission maximum” value on PKCδ C1B [2] was 30 nm.

With `CCCCCCCCCCCCCC(=O)O[C@@H]1[C@@H](C)[C@@]2(O)[C@@H](C=C(CO)C[C@]3(O)C(=O)C(C)=C[C@@H]23)[C@@H]2C(C)(C)[C@]12OC(C)=O` [TPA, 12-O-tetradecanoylphorbol-13-acetate, reference compound], the Hill coefficient at PKCδ C1B [1] came to 1.8.
